Laboratory results taken from patent US10555987B2, “GHRH agonists for the treatment of ischemic disorders” (UNIVERSITY OF MIAMI, priority 2012, dated 2020).
Non-standard residues stand in square brackets, D forms with d. Residues, ends and D or L forms follow the SMILES beside them. Phe(F5) = N[C@@H](Cc1c(F)c(F)c(F)c(F)c1F)C(=O)O; NMeY = CN[C@@H](Cc1ccc(O)cc1)C(=O)O; Nle = CCCC[C@H](N)C(=O)O; Orn = NCCC[C@H](N)C(=O)O; Abu = CC[C@H](N)C(=O)O

Tests used:
[1] = test system: myocardial infarction (Fisher-344 rats); test: Hemodynamic analysis (pressure-volume loops), body and heart weight after MI, compared to JI-38 (Example 15, Table 16); assay type: in vivo, rat; parameters: key to ESP (End-Systolic Pressure) / EDP (End-Diastolic Pressure) / ESV (End-Systolic Volume) / PRSW (Preload Recruitable Stroke Work) / Ees (End-systolic Elastance) / dP/dt max (peak rate of the pressure rise) / dP/dt max_EDV / dP/dt min / TAU (relaxation time constant calculated by Weiss method) / SV (Stroke Volume) / CO (Cardiac Output) / SW (Stroke Work) / EF / Ea/Ees / Ea (arterial Elastance): ↓: downward arrow denotes lower than JI-38; ↑: upward arrow denotes greater than JI-38; =denotes same as JI-38; ⬇⬇: double arrow denotes greater effect; ⬆⬆: double arrow denotes greater effect; settings: for CO (Cardiac Output) / EDP (End-Diastolic Pressure) / EF / ESP (End-Systolic Pressure) / ESV (End-Systolic Volume) / Ea (arterial Elastance) / Ea/Ees / Ees (End-systolic Elastance) / PRSW (Preload Recruitable Stroke Work) / SV (Stroke Volume) / SW (Stroke Work) / TAU (relaxation time constant calculated by Weiss method) / dP/dt max (peak rate of the pressure rise) / dP/dt max_EDV / dP/dt min: rat MI model, s.c. twice daily, pressure-volume loops, expressed in comparison to JI-38
In short: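 Female 6-month-old Fisher-344 rats after permanent left coronary ligation received GHRH agonists subcutaneously twice daily from 2 h post-surgery (n=10/group). Under ketamine/xylazine/acepromazine anesthesia, LV pressure-volume loops were recorded via carotid micromanometer catheter, calibrated by hypertonic saline bolus and cuvette method; echocardiography also serial.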

[2] = target: T1, GHRH receptor (Homo sapiens, UniProt Q02643); test: GHRH receptor binding, competition with 125I-labeled JV-1-42, human pituitary membrane homogenates (Table 7); parameters: Normal human pituitaries were purchased from the National Hormone and Peptide Program; tissue National Hormone and Peptide Program (A.F. Parlow, Harbor-UCLA Medical Center, Torrance, Calif.); host or cells: normal human pituitary, membrane fraction; settings: JI-38 = 1, Table 7
T1 sequence (Q02643 23-423): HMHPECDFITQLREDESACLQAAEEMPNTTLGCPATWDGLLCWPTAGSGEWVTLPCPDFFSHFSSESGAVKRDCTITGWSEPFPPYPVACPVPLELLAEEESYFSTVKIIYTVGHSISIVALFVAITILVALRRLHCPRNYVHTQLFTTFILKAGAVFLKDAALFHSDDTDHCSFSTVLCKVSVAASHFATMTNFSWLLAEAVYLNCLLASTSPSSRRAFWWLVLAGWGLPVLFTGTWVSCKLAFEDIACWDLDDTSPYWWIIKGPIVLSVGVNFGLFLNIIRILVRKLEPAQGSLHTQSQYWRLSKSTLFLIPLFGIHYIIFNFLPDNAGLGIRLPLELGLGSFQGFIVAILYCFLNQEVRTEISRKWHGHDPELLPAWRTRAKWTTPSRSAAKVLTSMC
Text: Normal human pituitaries were purchased from the National Hormone and Peptide Program (A.F. Parlow, Los Angeles, County Harbor-UCLA Medical Center, Torrance, Calif.).

[3] = target: T1, GHRH receptor; test: Receptor binding in vitro, 125I-labeled [His1,Nle27]-hGHRH(1-32)NH2, membrane receptors of human anterior pituitary cells (Table 14); settings: for Relative affinity (Binding potency) compared to JI-38: JI-38 = 1; for Relative affinity (Binding potency) compared to hGHRH(1-29): hGHRH(1-29)NH2 = 1
Text: Normal human pituitary was purchased from the National Hormone and Peptide Program (UCLA Medical Center, Torrance, Calif.).

[4] = test system: myocardial infarction (Fisher-344 rats); test: Serial echocardiography after MI, compared to JI-38 (Example 15, Table 15); assay type: in vivo, rat; parameters: key to LVEDD: Left Ventricular End Diastolic Diameter / LVESD: Left Ventricular End Systolic Diameter / VD: Ventricular Diastole / VS: Ventricular Systole / EF: Ejection Fraction / FS: Fraction Shortening: ↓: downward arrow denotes lower than JI-38; ↑: upward arrow denotes greater than JI-38; =denotes same as JI-38; ⬇⬇: double arrow denotes greater effect; ⬆⬆: double arrow denotes greater effect; settings: for EF: Ejection Fraction / FS: Fraction Shortening / LVEDD: Left Ventricular End Diastolic Diameter / LVESD: Left Ventricular End Systolic Diameter / VD: Ventricular Diastole / VS: Ventricular Systole: in comparison to JI-38
In short: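 Female 6-month-old Fisher-344 rats with permanent left coronary artery ligation received placebo, JI-38 or GHRH agonists subcutaneously twice daily from 2 h post-surgery (10 per group). Under 2% isoflurane, M-mode LVEDD, LVESD and FS plus long-axis EF were measured at baseline, 2 days, 1, 2 and 4 weeks.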

Compound	CO (Cardiac Output) [1]	EDP (End-Diastolic Pressure) [1]	EF [1]	ESP (End-Systolic Pressure) [1]	ESV (End-Systolic Volume) [1]	Ea (arterial Elastance) [1]	Ea/Ees [1]	Ees (End-systolic Elastance) [1]	PRSW (Preload Recruitable Stroke Work) [1]	SV (Stroke Volume) [1]	SW (Stroke Work) [1]	TAU (relaxation time constant calculated by Weiss method) [1]	dP/dt max (peak rate of the pressure rise) [1]	dP/dt max_EDV [1]	dP/dt min [1]	Relative affinity (Binding potency) vs JI-38 [2]	Relative affinity (Binding potency) compared to JI-38 [3]	Relative affinity (Binding potency) compared to hGHRH(1-29) [3]	EF: Ejection Fraction [4]	FS: Fraction Shortening [4]	also measured
CCCC[C@H](NC(=O)[C@@H](NC(=O)[C@H](CC(=O)O)NC(=O)[C@H](CCC(N)=O)NC(=O)[C@H](CC(C)C)NC(=O)[C@H](CC(C)C)NC(=O)[C@H](CCCN)NC(=O)[C@H](CCCNC(=N)N)NC(=O)[C@H](C)NC(=O)[C@H](CO)NC(=O)[C@H](CC(C)C)NC(=O)[C@H](CCC(N)=O)NC(=O)[C@H](CC)NC(=O)[C@H](CC(C)C)NC(=O)[C@@H](NC(=O)[C@H](CCCN)NC(=O)[C@H](CCCNC(=N)N)NC(=O)[C@H](Cc1ccc(O)cc1)NC(=O)[C@H](CO)NC(=O)[C@H](CCC(N)=O)NC(=O)[C@@H](NC(=O)[C@H](Cc1c(F)c(F)c(F)c(F)c1F)NC(=O)[C@@H](NC(=O)[C@H](C)NC(=O)[C@H](CC(=O)O)NC(=O)[C@@H](C)NC(=O)[C@H](Cc1ccc(O)cc1)NC)[C@@H](C)CC)[C@@H](C)O)C(C)C)[C@@H](C)CC)C(=O)N[C@@H](CC(=O)O)C(=O)N[C@@H](CCCNC(=N)N)C(=O)NC [Peptide P-27404, [N—Me-Tyr^1, D-Ala^2, Fpa5^6, Orn^12, Abu^15, Orn^21, Nle^27, Asp^28]hGHRH (1-29)NH—CH3] (H-[NMeY][dA]DAI[Phe(F5)]TQSYR[Orn]VL[Abu]QLSAR[Orn]LLQDI[Nle]DR-NHMe)	↑	↑	↑	=	=	=	=	=	=	↑	=	=	=	=	=	5.00	2.45	6.83	=	=	LVEDD: Left Ventricular End Diastolic Diameter [4]: ↑; LVESD: Left Ventricular End Systolic Diameter [4]: =; VD: Ventricular Diastole [4]: ↑; VS: Ventricular Systole [4]: ↑
CCCC[C@H](NC(=O)[C@@H](NC(=O)[C@H](CC(=O)O)NC(=O)[C@H](CCC(N)=O)NC(=O)[C@H](CC(C)C)NC(=O)[C@H](CC(C)C)NC(=O)[C@H](CCCN)NC(=O)[C@H](CCCNC(=N)N)NC(=O)[C@H](C)NC(=O)[C@H](CO)NC(=O)[C@H](CC(C)C)NC(=O)[C@H](CCC(N)=O)NC(=O)[C@H](CC)NC(=O)[C@H](CC(C)C)NC(=O)[C@@H](NC(=O)[C@H](CCCN)NC(=O)[C@H](CCCNC(=N)N)NC(=O)[C@H](Cc1ccc(O)cc1)NC(=O)[C@H](CO)NC(=O)[C@H](CC(N)=O)NC(=O)[C@@H](NC(=O)[C@H](Cc1ccccc1)NC(=O)[C@@H](NC(=O)[C@H](C)NC(=O)[C@H](CC(=O)O)NC(=O)[C@@H](C)NC(=O)[C@H](Cc1ccc(O)cc1)NC)[C@@H](C)CC)[C@@H](C)O)C(C)C)[C@@H](C)CC)C(=O)N[C@@H](CC(=O)O)C(=O)N[C@@H](CCCNC(=N)N)C(=O)NC [Peptide P-27409, [N—Me-Tyr^1, D-Ala^2, Orn^12, Abu^15, Orn^21, Nle^27, Asp^28]hGHRH(1-29)NH—CH3] (H-[NMeY][dA]DAIFTNSYR[Orn]VL[Abu]QLSAR[Orn]LLQDI[Nle]DR-NHMe)	⬆⬆	↑	⬆⬆	↑	=	=	↓	⬆⬆	⬆⬆	=	=	=	⬆⬆	=	=	4.10	2.71	7.57	⬆⬆	⬆⬆	PRSW, index of contractility ([1]; after MI): markedly increased; cardiac dimensions (LVEDD and LVESD) ([4]; after MI): reduced cardiac dimensions; cardiac performance (EF and FS) ([4]; after MI): substantial improvement on cardiac performance; LVEDD: Left Ventricular End Diastolic Diameter [4]: ⬇⬇; LVESD: Left Ventricular End Systolic Diameter [4]: ⬇⬇; VD: Ventricular Diastole [4]: =; VS: Ventricular Systole [4]: =
